Measurements from patent US11135188B2, “Method and composition to improve absorption of therapeutic agents” (Bayer HealthCare LLC, priority 2009, dated 2021).

Experiment: Compatibility: degradation products of aspirin/carbonate blends by HPLC
Format: physicochemical
Protocol: The degradation products of various combinations of aspirin and various carbonates were determined for different combinations of aspirin and different grades and sources of carbonates to evaluate the compatibility and stability. Milling for about fifteen minutes appeared to slightly induce the production of free salicylic acid (FSA), but not to a significant extent. […] The results are shown in Table 3 (all blend percentages are weight percentages obtained using High Performance Liquid Chromatography (HPLC))

## CC(=O)Oc1ccccc1C(=O)O [100% Aspirin-Milled 15 min, Aspirin]
  Acetyl Salicylic Salicylic Acid ASSA: 0.00%
  FSA (free salicylic acid): 0.00%
